Legend:
[1] = target: muscarinic receptors (cerebral cortex); assay: Binding to muscarinic receptors, 3H-N-methylscopolamine displacement, cerebral cortex; parameters: species or system male Sprague-Dawley rats; conditions: cerebral cortex homogenate 1:3000; 0.3 n molar 3H-N-methylscopolamine; 30° C., 45 minutes; pH 7.4; read-out: Receptor binding tests IC50, Cortex
Description: (§1) 3. STUDIES OF BINDING TO MUSCARINIC RECEPTORS: DETERMINATION OF THE IC50 VALUES
(§2) The organ donors were male Sprague-Dawley rats with a body weight of from about 180 to 220 gm each. After the heart, stomach, and cerebral cortex had been removed, the remainder of the operation was carried out in ice-cold Hepes-HCl buffer (pH 7.4; 100 m molar NaCl, 10 m molar MgCl2). The smooth muscle of the fundus of the stomach was separated from the mucous membrane of the stomach and subjected to preliminary homogenization. The whole heart was cut up with scissors. All the organs were then homogenized in a Potter apparatus.
(§3) For the binding test, the homogenized organs were diluted as follows:
(§4) The homogenized organ preparations were incubated at a specific concentration of the radioligand and with a series of concentrations of the non-radioactive test substances in an Eppendorf centrifuge tube at 30° C. The duration of incubation was 45 minutes. As substance 0.3 n molar ^3 H-N-methylscopolamine (^3 H-NMS) was used as the radioligand. After incubation had been brought to an end by centrifuging at 14000 g, the radioactivity in the pellet was determined. It represents the sum of the specific and non-specific binding of ^3 H-NMS. The proportion of non-specific binding was defined as the radioactivity which was bound in the presence of 1μ molar quinuclidinylbenzylate. Four measurements were taken in each case. The IC50 values of the non-labelled test substances were determined graphically. They represent the concentration of test substance at which the specific binding of ^3 H-NMS to the muscarinic receptors in the various organs was inhibited by 50%.

[2] = target: muscarinic receptors (smooth muscle of the fundus of the stomach); assay: Binding to muscarinic receptors, 3H-N-methylscopolamine displacement, smooth muscle of fundus of stomach; parameters: species or system male Sprague-Dawley rats; conditions: smooth muscle of fundus homogenate 1:100; 0.3 n molar 3H-N-methylscopolamine; 30° C., 45 minutes; pH 7.4; read-out: Receptor binding tests IC50, Smooth Muscle Fundus of Stomach
Description: as §1, §2, §3
Smooth muscle of the fundus of the stomach: 1:100
as §4

[3] = target: T1, muscarinic receptors (whole heart) (Rattus norvegicus, UniProt P10980); assay: Binding to muscarinic receptors, 3H-N-methylscopolamine displacement, whole heart; parameters: species or system male Sprague-Dawley rats; conditions: whole heart homogenate 1:250; 0.3 n molar 3H-N-methylscopolamine; 30° C., 45 minutes; pH 7.4; read-out: Receptor binding tests IC50, Heart
T1 construct: from tissue; host or cells: whole heart of male Sprague-Dawley rats, homogenate
T1 sequence (P10980 1-466): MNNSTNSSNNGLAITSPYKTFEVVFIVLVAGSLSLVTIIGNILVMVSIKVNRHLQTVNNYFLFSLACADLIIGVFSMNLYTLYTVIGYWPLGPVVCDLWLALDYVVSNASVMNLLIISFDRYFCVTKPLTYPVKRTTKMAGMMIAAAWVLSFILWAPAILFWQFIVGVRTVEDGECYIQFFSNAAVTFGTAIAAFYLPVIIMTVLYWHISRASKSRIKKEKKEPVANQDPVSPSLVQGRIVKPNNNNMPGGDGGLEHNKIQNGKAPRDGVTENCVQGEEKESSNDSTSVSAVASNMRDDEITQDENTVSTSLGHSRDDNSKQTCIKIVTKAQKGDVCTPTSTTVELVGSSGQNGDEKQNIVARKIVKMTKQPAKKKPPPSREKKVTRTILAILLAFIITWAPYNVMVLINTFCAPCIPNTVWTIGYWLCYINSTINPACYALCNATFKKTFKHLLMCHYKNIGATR
Description: as §1, §2, §3
as §4, with “It represents the sum of the specific and non-specific binding of ^3 H-NMS.” left out, “Four measurements were taken in each case.” left out, “They represent the concentration of test substance at which the specific binding of ^3 H-NMS to the muscarinic receptors in the various organs was inhibited by 50%.” left out

[4] = tested on: muscarinic receptors (oxotremorine-induced lesions in the mucous membrane of the stomach); assay: Oxotremorine test: lesions in the mucous membrane of the stomach (anti-ulcerative effect); type: in vivo, female albino rats (Crl:COBS-CD (SD) BR strain); conditions: iv; rat, test substance i.v. 15 minutes before oxotremorine 0.62 mg/kg i.v.; neostigmine 1 mg/kg oral
Description: (§5) Oxotremorine, a specific against for muscarinic receptors produces lesions in the mucous membrane of the stomach in rats and increases their secretion of saliva. This test method was chosen so that any selective activity of an antimuscarinic substance on the stomach could be identified.
(§6) Ten female albino rats (of the Crl:COBS-CD (SD) BR strain) with a body weight of from 120 to 150 gm apiece were used in each treatment group and were kept without food for 24 hours before the start of the test but given free access to drinking water.
(§7) To determine, in preliminary tests, the muscarinic effect of oxotremorine on each of the symptons studies, a dosage/activity curve was drawn up with at least three dosages for each symptom.
(§8) When the antimuscarinic substances were tested, the dosage of oxotremorine which triggered the symptom in question in 90 to 100% of the animals in the preliminary tests was used.
Lesions in the mucous membrane of stomach: 0.62 mg/kg i.v.
(§9) Each antimuscarinic substance was administered intravenously in uniformly graduated doses 15 minutes before the oxotremorine was administered. Control groups were given corresponding quantities of the solvent and suspension agent instead of the test substance. Immediately after the oxotremorine was administered, the animals were placed in a glass case for 15 minutes and observed.
The effects on lesions of the nucous membrane of the stomach were evaluated as follows:
The lesions of the gastric mucous membrane were produced by intravenous injection of 0.62 mg/kg of oxotremorine 30 minutes after the oral administration of 1 mg/kg of neostigmine (a cholinesterase inhibitor). Sixty minutes after the administration of the neostigmine, the animals were killed, and the stomachs were removed, opened, and examined for the presence of any lesions in the mucous membrane. The protective effect of the test substances was expressed as the percentage inhibition (percentage of animals with lesions).
The ED50 and ED70 values were determined using the method of LITCHFIELD and WILCOXON (eee above).

[5] = tested on: muscarinic receptors (oxotremorine-induced secretion of saliva); assay: Oxotremorine test: inhibition of salivation; type: in vivo, female albino rats (Crl:COBS-CD (SD) BR strain); conditions: iv, 0.25 h; rat, test substance i.v. 15 minutes before oxotremorine 0.083 mg/kg i.v.; blind test
Description: as §5, §6, §7, §8
Secretion of saliva: 0.083 mg/kg i.v.
as §9
The ED50 values were determined using the method described by LITCHFIELD and WILCOXON (J. Pharmacol. Exp. Ther. 96, 99, 1949).

Testing for mydriasis = assay: Testing for mydriasis; parameters: species or system rats; conditions: in vivo, iv; rat; pupil size observed for 10 minutes; blind test
Description: The effect of the test substances on the pupil size in rats was investigated as follows:
The substances were administered intravenously to groups of 10 animals in at least three uniformly graduated doses.

SMILES: CN1CCC(OC(=O)N2c3ccccc3NC(=O)c3ccccc32)CC1 [A]
- IC50 [1]: 5.5 nM
- IC50 [2]: 60 nM
- IC50 [3]: 42 nM
- ED50 [4]: 0.0155 mg/kg
- ED70 [4]: 0.036 mg/kg
- ED50 [5]: 0.064 mg/kg
- ED50 at 10 min (Testing for mydriasis): 0.071 mg/kg

SMILES: CN1CCC(NC(=O)N2c3ccccc3NC(=O)c3ccccc32)CC1 [B]
- IC50 [1]: 13 nM
- IC50 [2]: 100 nM
- IC50 [3]: 75 nM
- ED50 [4]: 0.0025 mg/kg
- ED70 [4]: 0.0048 mg/kg
- ED50 [5]: 0.022 mg/kg
- ED50 at 10 min (Testing for mydriasis): 0.023 mg/kg

SMILES: CN1CCN(NC(=O)N2c3ccccc3NC(=O)c3ccccc32)CC1 [C]
- IC50 [1]: 18 nM
- IC50 [2]: 90 nM
- ED50 [4]: 0.0036 mg/kg
- ED70 [4]: 0.007 mg/kg
- ED50 [5]: 0.032 mg/kg
- ED50 at 10 min (Testing for mydriasis): 0.0825 mg/kg
